The subject of one test is Desulfovibrio. As to the kind of experiment: Stool microbiome examined by 16S rRNA sequencing before and after molybdate treatment. It counts as in vivo, mouse. Conditions: molybdate treated control and IBS groups; stool before and after 7 days of cecal infusion; not reduced in saline treated groups. On the procedure: (§1) IBS mice were generated by colorectal infusion of 0.5% acetic acid (20 μl) at postnatal day 10. The mice were then allowed to grow up until adult. The adult IBS and control mice were undergone a surgery to insert a catheter into the cecum. The catheter made from PE10 tubing with 8 cm long. It was insert into cecum about 0.5 cm and then tunneled to the back of the mouse after sutured on the cecum wall ensuring no cecum content leaking. Then, a pair of electrodes were inserted into the external oblique (abdominal) muscle for pain sensitivity test. The mice received 0.2 ml sodium molybdate (10 mg/ml) through cecal infusion starting on the day after surgery for 7 days. One day after the last infusion, a visceral motor reflex (VMR) response to colorectal distention (CRD) was conducted to assess the pain sensitivity. A balloon was inserted into colorectum through the anus for CRD. The VMR is measured using an electromyographic (EMG) recording that response to CRD with 15, 30, 50 and 70 mmHg. To assess the microbiota, stool were collected before and after the molybdate treatment. Microbiome were examined by 16S rRNA sequencing.

Another test relates to IBS mouse model. As to the kind of experiment: Visceral motor reflex (VMR) response to colorectal distention (CRD), pain sensitivity in IBS mouse model. It counts as in vivo. Conditions: 0.2 ml sodium molybdate (10 mg/ml) cecal infusion for 7 days; for pain sensitivity (hyperalgesia) assessed by VMR response to CRD: IBS mice, CRD 15, 30, 50 and 70 mmHg, vs IBS-vehicle, P<0.05. On the procedure:
as §1

Structures are written as SMILES.

`[Na+].[Na+].[O]=[Mo](=[O])([O-])[O-]` [sodium molybdate]: the “sulfate-reducing bacteria Desulfovibrio in stool (16S rRNA sequencing)” value with Desulfovibrio is reported as “reduced”. The “pain sensitivity (hyperalgesia) assessed by VMR response to CRD” value in the test with IBS mouse model is listed as “reduced hyperalgesia”; in the test on IBS mouse model (listed as molybdate), “significantly reduced”. Moreover, the “pain sensitivity assessed by VMR response to CRD” value with IBS mouse model (control mice, molybdate vs saline treated) is given as “no significant different”.

Source of the values: US12226433B2, “Treatment of irritable bowel syndrome with molybdenum” (The Johns Hopkins University, priority 2018, dated 2025).
